Laboratory results from patent US8513422B2, “Piperidine derivative” (Astellas Pharma Inc., priority 2007, dated 2013).

What was measured:
[1] = target: T1, human 17βHSD type 3 (Homo sapiens, UniProt P37058); assay: Measurement of enzyme activity of human 17βHSD type 3; type: biochemical; settings: supernatant of transformed 293 cells as enzyme source
T1 construct: A full-length cDNA encoding human 17βHSD type 3 used in the pharmacological test of the present invention; expressed in transfected cells; host or cells: 293 cells (human fetus kidney-derived); supernatant of disrupted cells
T1 sequence (P37058 1-310): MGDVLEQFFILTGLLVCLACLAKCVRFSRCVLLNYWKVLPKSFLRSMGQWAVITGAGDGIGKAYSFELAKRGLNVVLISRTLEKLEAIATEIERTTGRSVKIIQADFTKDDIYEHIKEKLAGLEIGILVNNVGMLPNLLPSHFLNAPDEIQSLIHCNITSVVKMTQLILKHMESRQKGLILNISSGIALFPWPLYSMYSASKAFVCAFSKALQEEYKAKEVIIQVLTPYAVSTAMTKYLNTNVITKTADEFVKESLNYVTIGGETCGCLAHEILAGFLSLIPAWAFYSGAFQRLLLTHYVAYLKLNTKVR
Protocol: A full-length cDNA encoding human 17βHSD type 3 used in the pharmacological test of the present invention was obtained by the PCR method using a cDNA derived from human testis as a template. The nucleotide sequence of the obtained cDNA was analyzed by the dideoxyterminator method, and the clone matched with the known human 17βHSD type 3 sequence (GenBank accession No. BC034281) was selected. Subsequently, human fetus kidney-derived cell line, 293 cells, were transformed with a plasmid containing the cDNA, and the cells were collected 24 hours later. The collected cells were then disrupted in a phosphate buffer solution containing 5% glycerol (500 μL per 100 mm-dish of a phosphate buffer solution (pH 7.4, 200 mM) containing 5% glycerol) and centrifuged (16000 rpm, 5 min, 4° C.), and the supernatant was used as an enzyme source.
Enzyme activity was measured referring to Trevor M. Penning, et al., Biochem. J., 351, 67-77, (2000). Specifically, using a 100 mM potassium phosphate buffer (pH 6.0), (1) the enzyme purified in section 1 above at a final concentration of 10 μg/mL, (2) androstenedione at a final concentration of 300 nM, (3) NADPH at a final concentration of 200 μM, and (4) a test substance, were mixed to react at room temperature for 2 hours, and then the amount of testosterone produced was measured using DELFIA (registered trademark) Testosterone Reagents R050-201 (manufactured by PerkinElmer). The measurement was performed in accordance with the attached instructions. The amount of reduction of testosterone production in the presence of the compound was obtained as a relative value with respect to the amount of testosterone in the absence of the enzyme set at 0% and the amount of testosterone produced in the absence of the compound set at 100%. Then, IC50 values were calculated by the Logistic regression method.

[2] = target: T2, human 17βHSD type 5 (Homo sapiens, UniProt P42330); assay: Measurement of enzyme activity of human 17βHSD type 5 (testosterone production from androstenedione, DELFIA); type: biochemical; settings: purified enzyme 10 μg/mL, androstenedione 300 nM, NADPH 200 μM, pH 6.0, room temperature, 2 hours
T2 construct: A full-length cDNA encoding human 17βHSD type 5 used in the pharmacological test of the present invention; made in house; host or cells: Escherichia coli BL21
T2 sequence (P42330 1-323): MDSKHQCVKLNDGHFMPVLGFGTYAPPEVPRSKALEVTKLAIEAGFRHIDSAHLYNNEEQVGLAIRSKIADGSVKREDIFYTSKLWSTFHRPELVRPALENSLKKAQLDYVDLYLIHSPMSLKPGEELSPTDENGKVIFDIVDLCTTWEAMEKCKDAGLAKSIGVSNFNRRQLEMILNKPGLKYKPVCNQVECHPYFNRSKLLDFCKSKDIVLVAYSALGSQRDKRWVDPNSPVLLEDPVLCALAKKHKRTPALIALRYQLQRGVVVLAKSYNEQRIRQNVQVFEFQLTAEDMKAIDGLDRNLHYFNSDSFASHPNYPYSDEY
Text: A full-length cDNA encoding human 17βHSD type 5 used in the pharmacological test of the present invention was obtained by the PCR method using a cDNA derived from a human lung cancer-derived cell line, A549 cells as a template. […] Escherichia coli BL21 was transformed with a plasmid containing the cDNA and cultured on a large scale. The proteins were purified by using GSTrapFF column (manufactured by Amersham) and PreScissionProtease (manufactured by Amersham). The purification method was carried out in accordance with the instructions attached to the GSTrapFF column.
The measurement was performed in accordance with the attached instructions. The amount of reduction of testosterone production in the presence of the compound was obtained as a relative value with respect to the amount of testosterone in the absence of the enzyme set at 0% and the amount of testosterone produced in the absence of the compound set at 100%. Then, IC50 values were calculated by the Logistic regression method.

[3] = target: T3, LNCaP cells expressing human 17βHSD type 5 (Homo sapiens, UniProt P42330); assay: Cell growth capability using LNCaP cells expressing human 17βHSD type 5 (CellTiter-Glo); type: cell-based; settings: androstenedione 10 nM, culturing for 7 days; read-out: LNCaP-17β5 IC50 (cell growth inhibitory activity)
T3 sequence (P42330 1-323): T2 sequence (P42330 1-323)
Protocol: LNCaP cells of the human prostate cancer-derived cell line were transformed with a plasmid containing the clone selected in section 1 above and then a cell line showing stable expression was obtained.
9000 cells/well of the transformed cells obtained in section 4 above were seeded in a 96-well plate and cultured overnight. Then, androstenedione, in conjunction with a test compound, was added thereto at a final concentration of 10 nM, followed by culturing for 7 days. After the culturing, number of the cells was counted using a CellTiter-Glo (registered trademark) Luminescent Cell Viability Assay (Promega). The CellTiter-Glo (registered trademark) Luminescent Cell Viability Assay is a reagent that measures the number of the cells by monitoring an intracellular ATP level from the luminescence intensity by luciferase. The experimental manipulation was carried out in accordance with the attached instructions. The cell growth inhibitory activity in the presence of a test compound was calculated as a relative value with respect to the number of the cells in the absence of androstenedione set at proliferation of 0%, and the number of the cells in the presence of androstenedione and in the absence of the test compound set at proliferation of 100%. Then, IC50 values were calculated by the Logistic regression method.

[4] = tested on: 5α-reductase; settings: patients with BPH, after administration; cited from earlier work

SMILES | IC50 [1] [µM] | melting point [°C] | IC50 [2] [µM] | GI50 [3] [µM] | concentration of DHT in the prostate relative to the concentration before the administration [4] | increase of concentration of testosterone in the prostate [4] [fold]
Cc1ccc2[nH]c(C(=O)N3CCC(CC(C)(C)O)CC3)c(C)c2c1 [Example 17, 1-{1-[(3,5-dimethyl-1H-indol-2-yl)carbonyl]piperidin-4-yl}-2-methylpropan-2-ol] | > 10 | 166 to 168 | 0.39 | 0.02 |  | 
Cc1ccc2[nH]c(C(=O)N3CCC(CCO)CC3)cc2c1 [Example 22, 2-{1-[(5-methyl-1H-indol-2-yl)carbonyl]piperidin-4-yl}ethanol] | > 10 | 163 to 165 | 0.021 | 0.06 |  | 
CC(O)CC1CCN(C(=O)c2cc3ccccc3[nH]2)CC1 (stereo not drawn) [Example 30, 1-[1-(1H-indol-2-ylcarbonyl)piperidin-4-yl]propan-2-ol] | > 10 | 163 to 167 | 0.026 | 0.031 |  | 
CC(C)(C)NC(=O)[C@H]1CC[C@H]2[C@@H]3CC[C@H]4NC(=O)C=C[C@]4(C)[C@H]3CC[C@]12C [finasteride] |  |  |  |  | about 20% | 4

Second part, led by results:

IC50 [1] [µM] | melting point [°C] | IC50 [2] [µM] | GI50 [3] [µM] | SMILES | concentration of DHT in the prostate relative to the concentration before the administration [4] | increase of concentration of testosterone in the prostate [4] [fold]
> 10 | 178 to 180 | 0.0045 | 0.0089 | CC(C)(O)CC1CCN(C(=O)c2cc3cc(Cl)ccc3[nH]2)CC1 [Example 1, 1-{1-[(5-chloro-1H-indol-2-yl)carbonyl]piperidin-4-yl}-2-methylpropan-2-ol] |  | 
> 10 | 153 to 163 | 0.13 | 0.01 | CC(C)(O)CC1CCN(C(=O)c2cc3ccccc3[nH]2)CC1 [Example 9, 1-[1-(1H-indol-2-ylcarbonyl)piperidin-4-yl]-2-methylpropan-2-ol] |  | 
> 10 | 212 to 219 | 0.015 | 0.018 | CC(C)(O)CC1CCN(C(=O)c2cc3cc(O)ccc3[nH]2)CC1 [Example 15, 2-{[4-(2-hydroxy-2-methylpropyl)piperidin-1-yl]carbonyl}-1H-indol-5-ol] |  | 
> 10 | 223 to 225 | 0.015 | 0.029 | CC(C)(O)CC1CCN(C(=O)c2cc3cc([N+](=O)[O-])ccc3[nH]2)CC1 [Example 20, 2-methyl-1-{1-[(5-nitro-1H-indol-2-yl)carbonyl]piperidin-4-yl}propan-2-ol] |  | 
> 10 | 149 to 150 | 0.15 | 0.024 | Cc1ccc2[nH]c(C(=O)N3CCC(CC(C)(C)O)CC3)cc2c1 [Example 24, 2-methyl-1-{1-[(5-methyl-1H-indol-2-yl)carbonyl]piperidin-4-yl}propan-2-ol] |  | 
> 10 |  |  | 0.012 | COc1ccc2[nH]c(C(=O)N3CCC(CC(C)(C)O)CC3)cc2c1 [Example 25, 1-{1-[(5-methoxy-1H-indol-2-yl)carbonyl]piperidin-4-yl}-2-methylpropan-2-ol] |  | 
